According to patent publication US20240358862A1, “Synthesis Method and Application of a Near-infrared Probe GGa-ICG specific binding to PSCA” (Guangzhou Shiyun Biotechnology Co., Ltd, priority 2022, published 2024):

What was measured:
[1] = Fluorescence depth detection (tissue penetration depth); assay type: physicochemical; conditions: excited at 780 nm, signals detected after 5 minutes
Experimental: The tissue penetration depth of ICG, GGa-ICG, and ssDNA-ICG was detected using a fluorescence spectrometer at depths of 1, 2, 3, 4, and 5 mm. Fluorescence was excited at a wavelength of 780 nm and fluorescence signals were detected after 5 minutes to compare signal-to-noise ratios and observe the fluorescence signal penetration depth.

RWPE-1, MCF2, Hela cells = test: Cell binding by fluorescence microscope / flow cytometry, non-tumour prostate and other cells; assay type: cell-based, human; conditions: 200 nM probe
Experimental: Therefore, 200 nM of GGa-ICG and ssDNA-ICG were used to confirm their specific binding. The method is as follows: • a. The human prostate cancer cell lines PC-3, DU145, LNCaP, 22RV1, immortalized normal human prostate epithelial cell line RWPE1, and human cervical cancer cell line Hela, as well as MCF7 cells obtained from the American Type Culture Collection (ATCC), were used in this study. All cell lines were cultured at 37° C. and 5% CO2 in a humidified environment. […]
After the cells reach a confluency of over 80%, they were passaged and grown for 24-48 hours until they reached a confluency of over 50%. They were then washed once with PBS (without Ca and Mg ions), twice with cold washing buffer, and incubated at room temperature (4° C. for the internalization inhibition group) for 30 minutes with the sample buffer containing near-infrared fluorescence probes GGa-ICG, ssDNA-ICG, and ICG to a final concentration of 200 nM (or as specified). The cells were observed under a fluorescence microscope or analyzed by flow cytometry after digestion with trypsin without EDTA. […]

[2] = tested on: subcutaneous transplantation tumor models; test: In vivo visualization in subcutaneous transplantation tumor models of other cancers
From the text: PSCA is expressed at high levels in various tumors such as prostate cancer, bladder cancer, kidney cancer, breast cancer, colon cancer, lung cancer, pancreatic cancer, etc. Using the aforementioned method, T24 bladder cancer cells, Cakil renal cancer cells, MDA-MB468 breast cancer cells, HT29 colon cancer cells, PANC1 pancreatic cancer cells, NCI-H460 lung cancer cells, and other cell lines were stained with GGa-ICG for flow cytometry analysis. Positive cell lines were used to establish subcutaneous transplantation tumor models to detect the visualization of GGa-ICG in vivo.

[3] = Water solubility compared to ICG; assay type: physicochemical
PSCA [4] = molecular target: T1, PSCA (Homo sapiens, UniProt O43653); test: Mass spectrometry analysis of the target protein of GGa-ICG; assay type: binding; design: Membrane proteins of PC-3 cells were extracted; endogenous in cells; host or cells: PC-3; conditions: PC-3 membrane proteins, 35 kDa band
T1 sequence (O43653 12-83): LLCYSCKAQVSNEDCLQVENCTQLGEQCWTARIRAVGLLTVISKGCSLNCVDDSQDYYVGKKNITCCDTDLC
Experimental: PC-3 cells were washed three times with cold PBS buffer and lysed at 4° C. for 30 minutes in 5 mL of low-salt buffer [50 mM Tris-HCl (pH=7.5) containing protease inhibitor (0.1 mM PMSF complex)]. After centrifugation, the pellets were washed 3 times with 5 mL of low-salt buffer and then solubilized in 1.5 mL of lysis buffer (PBS containing 5 mM MgCl2 and 1% Triton X-100) at 4° C. for 30 minutes. The resulting supernatants were separately incubated with beads, ssDNA-ICG, or GGa-ICG at 4° C. for 1 hour. Protein-ssDNA-ICG or protein-GGa-ICG complexes were then captured by incubating them with 2 mg (200 μL) of streptavidin beads at 4° C. for 45 minutes. After centrifugation, the captured proteins were heated and eluted in 30 μL of loading buffer and then analyzed by SDS-PAGE gel and Coomassie blue staining. The protein bands showing significant differences in aptamer purification among different groups were subjected to in situ digestion and analyzed by LC-MS/MS.
Based on the above results, total membrane proteins were extracted from PC-3 cells and incubated with biotinylated GGa-ICG or ssDNA-ICG separately. Then, the binding complex was separated using streptavidin-coated magnetic beads and analyzed by SDS-PAGE gel. A characteristic protein band with a relative molecular weight of 35 kDa was found in the GGa-ICG column, which was digested and analyzed by LC-MS/MS QSTAR.

PSCA [5] = molecular target: T1, PSCA; test: Pull-down assay; assay type: binding; design: Membrane proteins of PC-3 cells were extracted; endogenous in cells; host or cells: PC-3; conditions: PC-3 membrane proteins, Western blotting with anti-PSCA antibody
Experimental: Membrane proteins of PC-3 cells were extracted and incubated with agarose beads, agarose-conjugated GGa-ICG, or an agarose-conjugated library. The resulting pull-down mixture containing proteins was analyzed by Western blotting using a PSCA-specific antibody. The captured proteins were analyzed by SDS-PAGE gel and Coomassie blue staining, followed by Western blotting using an anti-PSCA antibody.

Substance: GGa-ICG: near-infrared probe: PSCA-binding nucleic acid aptamer GGa linked at 3′ to an ICG derivative dye (DNA TGCCACTACAGCTGGTTCGGTTTGGTGACTTCGTTCTTCGTTGTGGT; 3'-ICG dye, further chemistry not given here)
- penetration depth [1]: ~6 mm
- binding affinity to RWPE-1, MCF2, Hela cells (RWPE-1, MCF2, Hela cells): significantly reduced binding affinity
- in vivo binding in multiple cancer types [2]: consistent with PSCA expression
- water solubility compared to existing ICG [3]: improved
- target protein hit list by LC-MS/MS (PSCA [4]): PSCA ranking first
- pull-down of PSCA (PSCA [5]): easily pulled down
